Laboratory results taken from US5726156A, “Cytokine regulatory agents and methods of use in pathologies and conditions associated with altered cytokine levels” (Trega Biosciences, Inc., priority 1995, dated 1998).

Assays:
[1] = tested on: kidney (renal ischemia/reperfusion); assay: Renal ischemia-reperfusion injury; format: in vivo, rats; design: RVR: unit not given here; settings: I/R + EX-2 (50 or 500 μg/kg iv, dose not given); 1 hr clamping, after 60 min reperfusion
Experimental: Sprague-Dawley rats (250-300 g) were anesthetized with inactin® (120 mg/kg). After deep anesthesia was assured, the rats were cannulated in the trachea with polyethylene (PE) tubing (PE 240), jugular vein, femoral artery, bladder (PE 50 for previous 3 cannulations), and left ureter (stretched PE 50). Once cannulation was completed, a 2 cm flank incision above the left kidney was performed and the renal pelvis and vascular bundle were exposed. The tissue surrounding the left renal artery was gently dissected away from the artery. The exposed renal artery was clamped for 1 hr using a small vascular cross-over clamp. Just prior to clamping, EX-2 (50 or 500 μg/kg), ketorolac (KETO, 1 mg/kg), or vehicle was administered intravenously (iv) After 1 hr of clamping (ischemia), the clamp was gently removed with care taken to avoid damaging either the renal artery or nerves.

LPS-induced lethality = LPS-induced lethality (IP dosing); format: in vivo, mice; settings: 11 × 300 μg/mouse IP (3.3 mg), every 4 hr; 0.6 mg LPS
Experimental: These experiments were performed based on information reported by Rivier etal., Endocrinology 125:2800-2805 (1989), which is incorporated herein by reference. Adult female Balb/c mice were provided food and water ad libitum. Mice were injected IP every four hr for 40 hr with 30 to 300 μg EX-2, EX-3 or EX-4 in 0.2 ml saline (treated group) or with 0.2 ml saline, alone (control group) (10 mice per group). Immediately following the first injection, 0.6 mg LPS endotoxin in 0.2 ml saline was administered to each mouse. Following LPS injection, EX-2 or saline was administered to the treated mice or the control mice, respectively, every 4 hr for 36 hr.

[2] = tested on: STZ diabetes, blood glucose; assay: Streptozotocin-induced diabetes; format: in vivo, rats; settings: 150 μg/kg every 8 hr for 72 hr; STZ 65 mg/kg iv
Experimental: Male Sprague-Dawley rats were given 65 mg/kg of streptozotocin (STZ) intravenously through the tall vein. Rats were divided into two groups. The first group was administered EX-2, 150 μg/kg every 8 hr for 72 hr and the second group was a control. Blood samples were withdrawn under ether anesthesia every 8 hr for the first 72 hr, then every 12 hr or 24 hr until the end of the observation period. Plasma samples were assayed for glucose using a glucose assay kit (Trinder, Sigma Chemical Co.). As shown in Table VI below EX-2 effect a 72% reduction in blood glucose levels.

[3] = tested on: inducible nitric oxide synthase (iNOS); assay: Inducible nitric oxide synthase (iNOS), cGMP accumulation in rat aorta smooth muscle cells; format: cell-based; settings: RASMC induced with LPS, IL-1β or TNF-α; 0.1 or 1 μM EX-2
Experimental: Rat aorta smooth muscle cells (RASMC) were isolated from male rats (325-350 g) using the previously published procedures of Gelsterfer et al., Circ. Res. 62:749-756 (1988), which is incorporated herein by reference. Cells were positively identified as smooth muscle cells by indirect immunofluorescent staining for anti-α-actin, using a mouse anti-α-actin antibody and anti-mouse IgG FITC conjugate. Cells were grown in T-75 tissue culture flasks (Corning Delbelco's Glass, Inc.; Corning, NY) in 50% F12 and 50% Delbelco's Modified Eagle Medium (DMEM) supplemented with 10% bovine serum, 0.2 g/1 L-glutamine, penicillin (100 U/ml) and streptomycin (0.1 mg/ml).
Cells between passages 1-5 were pretreated with one of the following: vehicle, LPS (1 μg/ml), IL-1β (10 U/ml), or TNF-α (100 U/ml) for 6 hr. […] Accumulation of cGMP was determined following exposure to 0.3 mM 3-isobutyl-1-methyl xanthine (IBMX in the presence or absence of 1 mM L-arginine. Medium was then rapidly aspirated and 500 μl of 0.1N HCl was added to each well to stop the reactions and extract cGMP. Thirty min later, the HC1 extract was collected and cell remnants removed from the wells by adding hot 1.0N NaOH and scraping the well with a rubber policeman. The HCl extract was analyzed for cGMP by RIA and the NaOH-solubilized cell remnants were used for protein determination. […]

## Ac-Nle-Gln-His-(D)Phe-Arg-(D)Trp-Gly-NH2 [EX-2]
[1]
  GFR: 0.5 ± 0.1
  RPF: 2.3 ± 0.3
  RVR: 1.8 ± 0.2
LPS-induced lethality
  Inhibition of LPS-induced Lethality (increase in survival vs control): 83%
[2]
  % Reduction, STZ Diabetes, Blood Glucose (mg/dl): 72%
[3]
  % Reduction of induced increase, iNOS, cGMP (pmol/100 mg/15 min): 60%
